Where two headings read alike, the source gives them in different places. Blank lines part the entries; values can stand above or below the compound they belong to.
What was measured:
[1] = cited from earlier work
[2] = plasma concentration; cited from earlier work
[3] = Study VII: single dose kinetics, fasting; format: in vivo, human; conditions: 25 mg compressed lozenge, fasting vs not fasting
Experimental: The single dose kinetics was conducted over 10 hours. The subjects had been fasting from 12 pm the night before the study began. The subjects were administrated a compressed lozenge containing 25 mg of bupivacaine. The blood collection began at approximately 7 am.
In our previous results we have seen an extra peak. The aim of this study was to investigate if the extra peak was from gastrointestinal absorption.
Baseline blood sample. Administration of lozenge. Blood sample at the following times: 0 min, 15 min, 30 min, 45 min, 60 min, 75 min, 90 min, 105 min, 120 min, 150 min, 180 min, 210 min, 240 min, 300 min, 360 min, 420 min, 480 min, 540 min and 600 min. (Time 0 minutes is when the lozenge is completely dissolved in the mouth.)

[4] = Study II: multiple doses kinetics; format: in vivo, human; conditions: 25 mg lozenge four times a day, 72 hours
Experimental: (§1) These are prospective, descriptive studies. The subjects were ten healthy young males. Samples of full blood were taken in lithium-heparin pipes for anticoagulant effect. After the blood sample is collected it is centrifuged at 2500 rounds per minute for 15 minutes at 4° C. Approximately 1 ml plasma is taken from the sample and put into vials and right away put into a −80° C. freezer, where it is kept until analysis.
The multiple doses study was conducted over 72 hours consecutively, where the subjects were administrated a lozenge containing 25 mg of bupivacaine four times a day in the awake hours.
The aim of the study was to measure the concentration of bupivacaine in the blood after absorption from an intact oral mucosa after administration of a lozenge containing 25 mg of bupivacaine given four times a day. […] Therefore the lozenges were administered at 8 am, […], 6 pm and 10 pm, to give a total daily dose of 100 mg bupivacaine.
The subjects drank 250 ml water to remove any traces of coffee, cola or other potential absorption enhancers. After 10 minutes a compressed lozenge was administered.

[5] = Pilot study Aarhus: kinetics, non-intact mucosa; format: in vivo, human; conditions: 25 mg lozenge, three head or neck cancer patients, stage 3 mucositis, non-intact oral mucosa
Experimental: The study was conducted over 2-3 hours on three patients from Aarhus University hospital. The patients were suffering from head or neck cancer with stage 3 mucositis with a non-intact oral mucosa. The aim of the study was to investigate the pharmacokinetics of bupivacaine by topical oral administration of a 25 mg lozenge. A baseline blood sample was taken, followed by administration of the lozenge, and then blood samples were taken at 0 min (i.e. when the lozenge is completely dissolved in the mouth), 15 min, 30 min, 45 min, 60 min, 75 min, 90 min, 105 min, 120 min, 150 min and 180 min.

[6] = Study I: single dose kinetics of compressed bupivacaine lozenge; format: in vivo, human
Experimental: Bupivacaine has not been used as local oral administration before.
The purpose of this study is to investigate the pharmacokinetics of bupivacaine after topical oral administration. The plasma concentration of bupivacaine is measured after absorption over an intact oral mucosa after administration of a compressed lozenge containing respectively 5, 10, 25 and 50 mg bupivacaine as a single dose and 25 mg as multiple doses.
as §1
The aim of the study was to investigate the pharmacokinetics of bupivacaine by topical oral administration. The concentration of bupivacaine was measured in the blood after absorption from an intact oral mucosa after administration of a compressed lozenge containing respectively 5, 10 or 25 mg of bupivacaine. On study days 1, 2, 3 and 4 (interspersed with single wash-out days) the subjects were given one 5 mg lozenge, one 10 mg lozenge, one 25 mg lozenge or two 25 mg lozenges, respectively.
Before the study began, the subjects drank 250 ml water to remove any traces of coffee, cola or other potential absorption enhancers. After 10 minutes a compressed lozenge was administered. […] A baseline blood sample was taken, the lozenge was administered and then blood samples were taken at 0 min (i.e. when the lozenge has completely dissolved in the mouth, 15 min, 30 min, 45 min, 60 min, 75 min, 90 min, 105 min, 120 min, 150 min, 180 min, 210 min, 240 min, 270 min, 300 min, 330 min and 360 min.

[7] = safety pharmacology, single and repeated dose toxicity, reproduction toxicity, mutagenic potential, local toxicity; cited from earlier work
[8] = Activity after heating during the casting process; format: physicochemical; conditions: heated at up to 180° C. during the casting process
[9] = standard aqueous medium, pH7.4, 25° C.

Compound: CCOC(=O)c1ccc(N)cc1 [benzocaine]
- octanol/water partition coefficient [1, 9]: 81

- influence of fasting on plasma level [3]: did not influence the results
- accumulation in the body [4]: not being accumulated in the body
- maximum plasma concentration of bupivacaine [5]: below 700 ng/ml
- discomfort ([6]; 5 mg and 10 mg compressed lozenge): none of them felt any discomfort
- discomfort, especially in the pharynx ([6]; 25 mg compressed lozenge): some of the subjects felt discomfort
- discomfort ([6]; 50 mg (two 25 mg lozenges)): discomfort was further increased
- maximum bupivacaine plasma concentration ([6]; maximum dosage 50 mg (two 25 mg compressed lozenges), single dose, intact oral mucosa, healthy subjects): less than 600 ng/ml
- activity after heating [8]: retains full activity
Compound: CCCCN1CCCCC1C(=O)Nc1c(C)cccc1C (stereo not drawn) [bupivacaine, 1-butyl-N-(2,6-dimethylphenyl)piperidine-2-carboxamide]
- toxic level in man [2]: 2 to 4 µg/mL
- peak plasma concentrations [4]: lower than the toxic level
- anesthetic effect felt ([6]; 5 mg and 10 mg compressed lozenge, healthy subjects): felt the anesthetic effect
- side effects ([6]; 5, 10, 25 and 50 mg single doses): None of the subjects experienced any side effects
- risks for humans from preclinical safety data [7]: no special risks for humans
- octanol/water partition coefficient [1, 9]: 346

Compound: CCCN(CC)C(CC)C(=O)Nc1c(C)cccc1C (stereo not drawn) [etidocaine]
- octanol/water partition coefficient [1, 9]: 800

Compound: CCCN1CCCC[C@H]1C(=O)Nc1c(C)cccc1C [ropivacaine]
- octanol/water partition coefficient [1, 9]: 115

Compound: levobupivacaine
- octanol/water partition coefficient ([1]; pH 7.4): 346
